# Test results from patent EP3057950B1, “PHENYL LINKED QUINOLINYL MODULATORS OF ROR-GAMMA-T” (Janssen Pharmaceutica NV, priority 2013, dated 2015).
# Structures can show the parent of a compound that is named as a salt. Where two headings read alike, the source gives them in different places.
# Legend:
# [1] = molecular target: T1, wild type human RORγt ligand binding domain (RORγt LBD) (Homo sapiens, UniProt P51449); assay: RORγt ThermoFluor® Assay (thermal shift, binding affinity); details: pH 7.0, estimated from concentration response curves
# T1 construct: His-tag (N); TurboTEV protease cleavage site (ENLYFQG) (N); made in house; host or cells: E. coli (pHIS1, modified pET expression vector)
# T1 sequence (P51449 269-508 limits assumed): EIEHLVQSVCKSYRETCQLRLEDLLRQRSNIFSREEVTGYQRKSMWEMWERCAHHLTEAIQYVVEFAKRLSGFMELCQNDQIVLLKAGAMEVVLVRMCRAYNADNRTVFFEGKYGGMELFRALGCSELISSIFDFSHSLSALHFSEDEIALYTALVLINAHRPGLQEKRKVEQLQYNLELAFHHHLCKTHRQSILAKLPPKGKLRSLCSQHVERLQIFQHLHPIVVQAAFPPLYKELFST
# Experimental: This approach is applicable to a wide variety of systems, and rigorous in theoretical interpretation through quantitation of equilibrium binding constants (KD).
# The shift in the melting point described as a ΔTm is proportional to the concentration and affinity of the ligand.
# Protein and compound solutions are dispensed into black 384-well polypropylene PCR microplates (Abgene) and overlayed with silicone oil (1 µL, Fluka, type DC 200) to prevent evaporation.
# Bar-coded assay plates are robotically loaded onto a thermostatically controlled PCR-type thermal block and then heated at a typical ramp-rate of 1 °C/min for all experiments. Fluorescence was measured by continuous illumination with UV light (Hamamatsu LC6) supplied via fiber optic and filtered through a band-pass filter (380-400 nm; >6 OD cutoff). Fluorescence emission of the entire 384-well plate was detected by measuring light intensity using a CCD camera (Sensys, Roper Scientific) filtered to detect 500 ± 25 nm, resulting in simultaneous and independent readings of all 384 wells. Images were collected at each temperature, and the sum of the pixel intensity in a given area of the assay plate was recorded versus temperature. Reference wells contained RORγt without compounds, and the assay conditions were as follows: • 0.065 mg/mL RORγt • 60 µM 1,8-ANS • 100 mM Hepes, pH 7.0 • 10 mM NaCl • 2.5 mM GSH • 0.002% Tween-20
# Project compounds were arranged in a pre-dosed mother plate (Greiner Bio-one) wherein compounds are serially diluted in 100% DMSO by 1:2 from a high concentration of 10 mM over 12 columns within a series (column 12 is a reference well containing DMSO, no compound). The compounds were robotically dispensed directly into assay plates (1x = 46 nL) using a Hummingbird capillary liquid handling instrument (Digilab). Following compound dispense, protein and dye in buffer was added to achieve the final assay volume of 3 µL, followed by 1 µL of silicone oil.
# [2] = molecular target: T2, wild type human RORγt LBD (Homo sapiens, UniProt P51449); assay: RORγt Reporter Assay (GAL4-RORγt LBD luciferase in HEK293T cells); format: cell-based; details: for IC50: compounds for 24 hours; for inhibition at 6 µM: HEK-293T
# T2 construct: expressed in transfected cells; host or cells: HEK293T
# T2 sequence (P51449 269-508 limits assumed): T1 sequence (P51449 269-508 limits assumed)
# Description: A reporter assay was used to test functional activity of RORγt modulatory compounds on transcriptional activation driven by the RORγt LBD. Cells used in the assay were co-transfected with two constructs. The first construct, pBIND-RORγt LBD, contained the wild type human RORγt LBD fused to the DNA binding domain of the GAL4 protein. The second construct, pGL4.31 (Promega Cat no. C935A), contained multiple GAL4 responsive DNA elements upstream of firefly luciferase. […] The mutant construct was called pBIND-RORγt-AF2.
# The pBIND vector contains the GAL4 DNA Binding Domain (GAL4 DBD) and the renilla luciferase gene under control of the SV40 promoter. Renilla luciferase expression serves as a control for transfection efficiency and cell viability.
# The reporter assay was performed by transiently transfecting HEK293T cells with 5 µg of pBIND-RORγt LBD or pBIND-RORγt LBD-AF2 and 5 µg pGL4.31 (Promega Cat no. C935A) using Fugene 6 (Invitrogen Cat no. E2691) at a 1:6 ratio of DNA: Fugene 6 in a T-75 flask in which cells were at least 80% confluent. Twenty four hours after bulk transfection, cells were plated into 96-well plates at 50,000 cells/well in phenol-red free DMEM containing 5% Lipid Reduced FCS and Pen/Strep. Six hours after plating, cells were treated with compounds for 24 hours. Media was removed and cells were lysed with 50 µL 1x Glo Lysis Buffer (Promega). Dual Glo Luciferase Reagent (50 µL/well) was then added and firefly luciferase luminescence was read on an Envision after a ten minute incubation. Finally, Stop and Glo reagent (50 µL/well) was added and renilla luciferase luminescence was read on an Envision instrument after a ten minute incubation. To calculate the effect of compounds on RORγt activity, the ratio of firefly to renilla luciferase was determined and plotted against compound concentration. Agonist compounds increase RORγt-driven luciferase expression, and antagonist or inverse agonist compounds decrease luciferase expression.
# [3] = HEK293T cells, read-out: RORγt reporter Assay, IC50
# [4] = read-out: RORγt reporter Assay, % inhibition @ 6 µM, @ 6 µM, HEK293T cells
SMILES,Kd [1] [nM],"IC50 [2, 3] [µM]","inhibition at 6 µM [2, 4] [%]","inhibition at 6 µM ([2]; read-out: RORγt reporter Assay, % inhibition @ 6 µM) [%]","IC50 ([2]; RORγt reporter Assay, IC50 (µM), HEK293T cells) [µM]"
"Cn1cncc1C(O)(c1ccc(Cl)cc1)c1ccc2nc(OCCN3CC3)c(-c3ccccc3)c(Cl)c2c1 (stereo not drawn) [Example 44, [2-(2-Aziridin-1-ylethoxy)-4-chloro-3-phenylquinolin-6-yl](4-chlorophenyl)(1-methyl-1H-imidazol-5-yl)methanol]",5400,–,–,31,> 6
"Cn1cncc1C(O)(c1ccc(Cl)cc1)c1ccc2nc(OCC(F)(F)F)c(-c3ccccc3)c(Cl)c2c1 (stereo not drawn) [Example 45, (4-Chlorophenyl)[4-chloro-3-phenyl-2-(2,2,2-trifluoroethoxy)quinolin-6-yl](1-methyl-1H-imidazol-5-yl)methanol•TFA]",770,0.57,93,–,–
"COCCOc1nc2ccc(C(O)(c3ccc(Cl)cc3)c3cncn3C)cc2c(Cl)c1-c1ccccc1 (stereo not drawn) [Example 48, [4-Chloro-2-(2-methoxyethoxy)-3-phenylquinolin-6-yl](4-chlorophenyl)(1-methyl-1H-imidazol-5-yl)methanol]",810,0.67,103,–,–
"CCC(=O)NCCOc1nc2ccc(C(O)(c3ccc(Cl)cc3)c3cncn3C)cc2c(Cl)c1-c1ccccc1 (stereo not drawn) [Example 51, N-[2-({4-Chloro-6-[(4-chlorophenyl)(hydroxy)(1-methyl-1H-imidazol-5-yl)methyl]-3-phenylquinolin-2-yl}oxy)ethyl]propanamide]",1100,1.1,96,–,–
"Cn1cncc1C(O)(c1ccc(Cl)cc1)c1ccc2nc(OCCN)c(-c3ccccc3)c(Cl)c2c1 (stereo not drawn) [Example 52, [2-(2-Aminoethoxy)4-chloro-3-phenylquinolin-6-yl](4-chlorophenyl)(1-methyl-1H-imidazol-5-yl)methanol]",3500,~6,52,–,–
"Cn1cncc1C(O)(c1ccc(C(F)(F)F)nc1)c1ccc2nc(OCC(F)(F)F)c(-c3ccccc3)c(Cl)c2c1 (stereo not drawn) [Example 54, [4-Chloro-3-phenyl-2-(2,2,2-trifluoroethoxy)quinolin-6-yl](1-methyl-1H-imidazol-5-yl)[6-(trifluoromethyl)pyridin-3-yl]methanol]",380,0.44,102,–,–
"Cn1cncc1C(O)(c1ccc2nc(Cl)c(-c3ccccc3)c(Cl)c2c1)c1ncccn1 (stereo not drawn) [Example 55, (2,4-Dichloro-3-phenylquinolin-6-yl)(1-methyl-1H-imidazol-5-yl)pyrimidin-2-ylmethanol]",3300,~3,70,–,–
"CON(C)c1nc2ccc(C(O)(c3ccc(C(F)(F)F)nc3)c3cncn3C)cc2c(N(C)OC)c1-c1ccccc1 (stereo not drawn) [Example 57, {2,4-Bis[methoxy(methyl)amino]-3-phenylquinolin-6-yl}(1-methyl-1H-imidazol-5-yl)[6-(trifluoromethyl)pyridin-3-yl]methanol]",580,0.69,100,–,–
"CN(C)c1nc2ccc(C(c3ccc(Cl)cc3)c3cncn3C)cc2c(Cl)c1-c1ccccc1 (stereo not drawn) [Example 71, 4-Chloro-6-((4-chlorophenyl)(1-methyl-1H-imidazol-5-yl)methyl)-N,N-dimethyl-3-phenylquinolin-2-amine]",2200,1.4,84,–,–
"Cn1cncc1C(c1ccc(Cl)cc1)c1ccc2nc(C#N)c(-c3ccccc3)c(Cl)c2c1 (stereo not drawn) [Example 72, 4-Chloro-6-((4-chlorophenyl)(1-methyl-1H-imidazol-5-yl)methyl)-3-phenylquinoline-2-carbonitrile•TFA]",890,0.63,100,–,–

# The next compounds have a lower Kd [1] than those just listed; values first:
Kd [1] [nM],"IC50 [2, 3] [µM]","inhibition at 6 µM [2, 4] [%]",SMILES,"inhibition at 6 µM ([2]; read-out: RORγt reporter Assay, % inhibition @ 6 µM) [%]","IC50 ([2]; RORγt reporter Assay, IC50 (µM), HEK293T cells) [µM]"
230,0.83,106,"CN(CCO)c1nc2ccc(C(O)(c3ccc(Cl)cc3)c3cncn3C)cc2c(Cl)c1-c1ccccc1 (stereo not drawn) [Example 46, 2-[{4-Chloro-6-[(4-chlorophenyl)(hydroxy)(1-methyl-1H-imidazol-5-yl)methyl]-3-phenylquinolin-2-yl}(methyl)amino]ethanol•TFA]",–,–
220,0.15,99,"CON(C)c1nc2ccc(C(O)(c3ccc(Cl)cc3)c3cncn3C)cc2c(Cl)c1-c1ccccc1 (stereo not drawn) [Example 58, {4-Chloro-2-[methoxy(methyl)amino]-3-phenylquinolin-6-yl}(4-chlorophenyl)(1-methyl-1H-imidazol-5-yl)methanol]",–,–
90,0.031,99,"COCCN(C)c1nc2ccc(C(O)(c3ccc(Cl)cc3)c3cncn3C)cc2c(Cl)c1-c1ccccc1 (stereo not drawn) [Example 50, {4-Chloro-2-[(2-methoxyethyl)(methyl)amino]-3-phenylquinolin-6-yl}(4-chlorophenyl)(1-methyl-1H-imidazol-5-yl)methanol]",–,–
60,0.023,102,"CON(C)c1nc2ccc(C(O)(c3ccc(C(F)(F)F)nc3)c3cncn3C)cc2c(Cl)c1-c1ccccc1 (stereo not drawn) [Example 56, {4-Chloro-2-[methoxy(methyl)amino]-3-phenylquinolin-6-yl}(1-methyl-1H-imidazol-5-yl)[6-(trifluoromethyl)pyridin-3-yl]methanol]",–,–
9.3,> 6,26,"COc1nc2c(C)cc(C(O)(c3ccc(C(F)(F)F)nc3)c3cncn3C)cc2c(Cl)c1-c1ccc(OC(F)(F)F)cc1 (stereo not drawn) [Example 63, (4-Chloro-2-methoxy-8-methyl-3-(4-(trifluoromethoxy)phenyl)quinolin-6-yl)(1-methyl-1H-imidazol-5-yl)(6-(trifluoromethyl)pyridin-3-yl)methanol]",–,–
8.3,0.04,98,"Cc1nc(C)c(C(O)(c2ccc3nc(C#N)c(-c4ccccc4)c(C#N)c3c2)c2cnnn2C)s1 (stereo not drawn) [Example 47a, 6-((2,4-Dimethylthiazol-5-yl)(hydroxy)(1-methyl-1H-1,2,3-triazol-5-yl)methyl)-3-phenylquinoline-2,4-dicarbonitrile]",–,–
3.5,0.039,98,"CSc1nc2ccc(C(O)(c3sc(C)nc3C)c3cncn3C)cc2c(Cl)c1-c1ccccc1 (stereo not drawn) [Example 43, (4-Chloro-2-(methylthio)-3-phenylquinolin-6-yl)(2,4-dimethylthiazol-5-yl)(1-methyl-1H-imidazol-5-yl)methanol•TFA]",–,–
0.51,0.017,103,"CSc1nc2ccc(C(O)(c3sc(C)nc3C)c3cncn3C)cc2c(SC)c1-c1ccccc1 (stereo not drawn) [Example 42, (2,4-Bis(methylthio)-3-phenylquinolin-6-yl)(2,4-dimethylthiazol-5-yl)(1-methyl-1H-imidazol-5-yl)methanol•TFA]",–,–
